Assay results reported in patent US8415486B2, “IAP inhibitors” (TetraLogic Pharmaceuticals Corp., priority 2009, dated 2013).

Legend:
XIAP BIR-3 = biological target: T1, XIAP BIR-3 (Homo sapiens, UniProt P98170); experiment: Fluorescence polarization binding to XIAP BIR-3 with labeled peptide AbuRPF-K(5-Fam)-NH2; conditions: 40 nM BIR3, 5 nM labeled peptide, reported as ranges
T1 construct: 40 nM of the respective IAP BIR3
Method in brief: (§1)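 Competitive FP: compounds titrated against 5 nM AbuRPF-K(5-Fam)-NH2 tracer and 40 nM BIR3 protein, 15 min at RT in 0.1 M potassium phosphate pH 7.5 with bovine γ-globulin. Polarization read at 485/520 nm; KD reported in ranges A <0.1, B 0.1–1, C >1–10, D >10 μM.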

cIAP-1 BIR-3 = biological target: T2, cIAP-1 BIR-3 (Homo sapiens, UniProt Q13490); experiment: Fluorescence polarization binding to cIAP-1 BIR-3 with labeled peptide AbuRPF-K(5-Fam)-NH2; conditions: 40 nM BIR3, 5 nM labeled peptide, reported as ranges, read-out: KD (c-IAP-1 BIR3)
T2 construct: 40 nM of the respective IAP BIR3
Method in brief: as §1

[1] = system: ovarian cancer cell line, SK-OV-3; experiment: SK-OV-3 cell growth inhibition (MTT, 72 hrs); assay type: cell-based; conditions: Homo sapiens, concentration giving 50% cell survival, reported as ranges
Method in brief: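 After overnight seeding in McCoy's medium with 10% FBS, SK-OV-3 cells were exposed to compound at 0.003-10 μM for 72 hrs at 37° C. MTT was then added for 3 h, with DMSO solubilization and OD read at 535 nm. CC50 is the concentration giving 50% survival relative to untreated control, reported as ranges.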

T1 sequence (P98170 241-356 limits assumed): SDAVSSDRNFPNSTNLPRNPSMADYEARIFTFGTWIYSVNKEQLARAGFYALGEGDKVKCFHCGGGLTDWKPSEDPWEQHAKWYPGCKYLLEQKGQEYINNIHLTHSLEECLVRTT
T2 sequence (Q13490 253-363 limits assumed): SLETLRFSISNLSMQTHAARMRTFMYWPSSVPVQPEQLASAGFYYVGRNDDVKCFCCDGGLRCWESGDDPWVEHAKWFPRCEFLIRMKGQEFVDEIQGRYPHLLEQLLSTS

CN[C@@H](C)C(=O)N[C@H](C(=O)N1CC[C@@H]2[C@H]1[C@@H](Oc1ccc(F)c(F)c1)CN2C(=O)N(C)C)C(C)(C)C [Example 25, 3-(3,4-Difluoro-phenoxy)-4-[3,3-dimethyl-2-(2-methylamino-propionylamino)-butyryl]-hexahydro-pyrrolo[3,2-b]pyrrole-1-carboxylic acid dimethylamide]
< 100 nM: Kd (XIAP BIR-3) | Kd (cIAP-1 BIR-3) | CC50 [1]
